Source: ChEMBL document CHEMBL3608273, “Discovery of Biaryl Amides as Potent, Orally Bioavailable, and CNS Penetrant RORγt Inhibitors” (ACS Med Chem Lett, 2015)

Key:
[1] = Inhibition of Th17 cell differentiation in mouse CD4-positive T cells incubated for 3 days by ELISA method; conditions: Th17, 72 h, read-out: pIC50 (converted)
[2] = AUC (0 to 4 hrs) in C57BL/6 mouse brain at 2 mg/kg, ip by LC/MS/MS method; type: ADME, organism-based; parameters: time < 4 hr, dose 2 mg/kg, route intraperitoneal
[3] = AUC (0 to 4 hrs) in C57BL/6 mouse blood at 2 mg/kg, ip by LC/MS/MS method; type: ADME, organism-based; parameters: time < 4 hr, dose 2 mg/kg, route intraperitoneal
[4] = Blood clearance in C57BL/6 mouse at 1 mg/kg, ip by LC/MS/MS method; type: ADME, organism-based
[5] = Cmax in C57BL/6 mouse at 2 mg/kg, po by LC/MS/MS method; type: ADME, organism-based; parameters: dose 2 mg/kg, route oral; conditions: in vivo
[6] = Half life in C57BL/6 mouse at 1 mg/kg, ip by LC/MS/MS method; type: ADME, organism-based; conditions: in vivo
[7] = system: Mus musculus; test: Volume of distribution at steady state in C57BL/6 mouse at 1 mg/kg, ip by LC/MS/MS method; type: ADME, organism-based; conditions: in vivo
[8] = system: Mus musculus; test: Dose normalized AUC (0 to infinity) in C57BL/6 mouse at 2 mg/kg, po by LC/MS/MS method; type: ADME, organism-based; conditions: in vivo
[9] = Oral bioavailability in C57BL/6 mouse at 2 mg/kg by LC/MS/MS method; type: ADME, organism-based; conditions: in vivo
[10] = Ratio of AUC (0 to 4 hrs) in brain to blood of C57BL/6 mouse at 2 mg/kg, ip by LC/MS/MS method; type: ADME, organism-based
[11] = biological target: T1, Nuclear receptor ROR-gamma (Homo sapiens, UniProt P51449); test: Inhibition of RORgammat (unknown origin) assessed as inhibition of agonist-induced response by FRET assay
T1 sequence (P51449 whole entry): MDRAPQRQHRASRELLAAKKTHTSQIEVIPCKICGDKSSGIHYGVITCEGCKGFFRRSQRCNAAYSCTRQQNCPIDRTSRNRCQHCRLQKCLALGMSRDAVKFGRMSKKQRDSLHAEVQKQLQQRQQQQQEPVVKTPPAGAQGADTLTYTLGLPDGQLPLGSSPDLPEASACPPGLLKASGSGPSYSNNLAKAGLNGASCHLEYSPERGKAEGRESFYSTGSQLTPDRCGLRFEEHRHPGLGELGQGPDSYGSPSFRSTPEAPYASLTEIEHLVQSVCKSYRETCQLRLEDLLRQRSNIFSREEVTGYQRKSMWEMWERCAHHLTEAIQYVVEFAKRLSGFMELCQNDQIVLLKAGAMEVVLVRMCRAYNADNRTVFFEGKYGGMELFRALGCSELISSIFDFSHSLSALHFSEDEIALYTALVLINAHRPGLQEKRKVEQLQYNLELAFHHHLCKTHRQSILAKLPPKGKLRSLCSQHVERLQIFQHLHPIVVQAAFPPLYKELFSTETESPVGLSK

[12] = system: Mus musculus; test: Dose normalized AUC (0 to infinity) in C57BL/6 mouse at 10 mg/kg, po by LC/MS/MS method; type: ADME, organism-based; conditions: in vivo
[13] = organism: Mus musculus; conditions: C57BL/6 (B6), 1 to 10 mg/kg
Description: Inhibition of disease severity in C57BL/6 (B6) mouse model of experimental autoimmune encephalomyelitis at 1 to 10 mg/kg, po qd dosed starting from day of immunization

| SMILES | IC50 [1] [nM] | AUC(0-t) at 4 h [2] [ng·h/mL] | AUC(0-t) at 4 h [3] [ng·h/mL] | other results |
| --- | --- | --- | --- | --- |
| CCS(=O)(=O)c1ccc(CC(=O)Nc2ccc(-c3ccc(Cl)cc3OC(F)(F)F)c(Cl)c2)cc1 | 7.94 | 1760 | 881 |  |
| CCS(=O)(=O)c1ccc(CC(=O)Nc2ccc(-c3ccccc3OC(F)(F)F)c(-c3ccno3)c2)cc1 | 63.1 |  |  |  |
| CCS(=O)(=O)c1ccc(CC(=O)Nc2ccc(-c3ncccc3C(F)(F)F)c(Cl)c2)cc1 | > 5010 |  |  |  |
| NS(=O)(=O)c1ccc(CC(=O)Nc2cc(Cl)c(-c3ccccc3OC(F)(F)F)c(Cl)c2)cc1 | 7.94 | 388 | 4880 |  |
| CCS(=O)(=O)c1ccc(CC(=O)Nc2ccc(-c3ccccc3)cc2)cc1 | > 10000 |  |  |  |
| CCS(=O)(=O)c1ccc(CC(=O)Nc2ccc(-c3ccccc3OC(F)(F)F)c(-c3cncnc3)c2)cc1 | < 31.6 |  |  |  |
| CCS(=O)(=O)c1ccc(CC(=O)Nc2ccc(-c3ccccc3)c(Cl)c2)cc1 | 6310 |  |  |  |
| CCS(=O)(=O)c1ccc(CC(=O)Nc2cc(Cl)c(-c3ccccc3C#N)c(Cl)c2)cc1 | 79.4 | 200 | 1930 |  |
| CCS(=O)(=O)c1ccc(CC(=O)Nc2cc(Cl)c(-c3ccccc3OC(F)F)c(Cl)c2)cc1 | 10 | 462 | 1180 |  |
| CS(=O)(=O)c1ccc(CC(=O)Nc2cc(Cl)c(-c3ccccc3OC(F)(F)F)c(Cl)c2)cc1 |  | 658 | 835 | CL/F [4]: 5.5 mL/min/kg; Cmax [5]: 214 ng/mL; half-life [6]: 9.7 h; Vdss [7]: 4.4 L/kg; AUC/dose [8]: 2465 ng·h/mL/mg/kg; bioavailability [9]: 100% |
| CCS(=O)(=O)c1ccc(CC(=O)Nc2nc(-c3cc(Cl)ccc3Cl)cs2)cc1 |  |  |  | Kp [10]: 1.5 |
| CCS(=O)(=O)c1ccc(CC(=O)Nc2cccc(-c3cc(Cl)ccc3Cl)n2)cc1 |  |  |  | IC50 [11]: > 25100 nM |
| CCS(=O)(=O)c1ccc(CC(=O)Nc2ccc(-c3ccccc3OC(F)(F)F)cc2)cc1 | 158 |  |  |  |
| CCS(=O)(=O)c1ccc(CC(=O)Nc2ccc(-c3ccccc3OC(F)(F)F)c(C(C)=O)c2)cc1 | 2510 |  |  |  |
| CCS(=O)(=O)c1ccc(CC(=O)Nc2ccc(-c3ccccc3Cl)c(Cl)c2)cc1 | 1000 |  |  |  |
| CCS(=O)(=O)c1ccc(CC(=O)Nc2ccc(-c3ccccc3OC(F)(F)F)c(C)c2)cc1 | 25.1 |  |  |  |
| CCS(=O)(=O)c1ccc(CC(=O)Nc2ccc(-c3ccccc3OC(C)C)c(Cl)c2)cc1 | 79.4 |  |  |  |

| SMILES | IC50 [1] [nM] | AUC(0-t) at 4 h [2] [ng·h/mL] | AUC(0-t) at 4 h [3] [ng·h/mL] | other results |
| --- | --- | --- | --- | --- |
| CCS(=O)(=O)c1ccc(CC(=O)Nc2ccc(-c3ccccc3OC(F)(F)F)c(C(F)(F)F)c2)cc1 | 126 |  |  |  |
| CCS(=O)(=O)c1ccc(CC(=O)Nc2ccc(-c3ccccc3C(F)(F)F)c(Cl)c2)cc1 | 200 |  |  | CL/F [4]: 17.6 mL/min/kg; Cmax [5]: 211 ng/mL; half-life [6]: 2.2 h; Vdss [7]: 3.2 L/kg; AUC/dose [8]: 713 ng·h/mL/mg/kg; bioavailability [9]: 75% |
| CCS(=O)(=O)c1ccc(CC(=O)Nc2cc(Cl)c(-c3ccccc3OC(F)(F)F)c(C#N)c2)cc1 | 31.6 |  |  |  |
| CCS(=O)(=O)c1ccc(CC(=O)Nc2ncc(-c3cc(Cl)ccc3Cl)s2)cc1 |  |  |  | IC50 [11]: > 25100 nM |
| CCS(=O)(=O)c1ccc(CC(=O)Nc2ccc(-c3ccccc3OC(F)(F)F)c(C(=O)O)c2)cc1 | > 10000 |  |  |  |
| CCS(=O)(=O)c1ccc(CC(=O)Nc2ccc(-c3ccccc3OC(F)(F)F)nc2)cc1 | 7940 |  |  |  |
| CCS(=O)(=O)c1ccc(CC(=O)Nc2cc(Cl)c(-c3ccccc3OC(F)(F)F)c(Cl)c2)cc1 |  | 946 | 1220 |  |
| CS(=O)(=O)c1ccc(CC(=O)Nc2ccc(-c3ccc(Cl)cc3OC(F)(F)F)c(F)c2)cc1 | 50.1 | 2350 | 2020 |  |
| Cc1cc(NC(=O)Cc2ccc(S(C)(=O)=O)cc2)ccc1-c1ccc(Cl)cc1OC(F)(F)F | 63.1 | 3520 | 2400 | AUC/dose [12]: 4048 ng·h/mL/mg/kg; inhibition [13]: Dose-dependent effect |
| CS(=O)(=O)c1ccc(CC(=O)Nc2ccc(-c3ccc(Cl)cc3OC(F)(F)F)c(Cl)c2)cc1 | 25.1 | 1700 | 1730 |  |
| CCS(=O)(=O)c1ccc(CC(=O)Nc2nnc(-c3cc(Cl)ccc3Cl)s2)cc1 |  |  |  | IC50 [11]: > 25100 nM |
| CCS(=O)(=O)c1ccc(CC(=O)Nc2cc(C)c(-c3ccccc3OC(F)(F)F)c(Cl)c2)cc1 | < 3.16 |  |  |  |
| CCS(=O)(=O)c1ccc(CC(=O)Nc2ccc(-c3ccccc3OC(F)(F)F)c(Cl)c2)cc1 | 79.4 |  |  | CL/F [4]: 11.6 mL/min/kg; Cmax [5]: 203 ng/mL; half-life [6]: 4.2 h; Vdss [7]: 3.8 L/kg; AUC/dose [8]: 1313 ng·h/mL/mg/kg; bioavailability [9]: 102% |
| CCS(=O)(=O)c1ccc(CC(=O)Nc2cc(Cl)c(-c3ccc(F)cc3C#N)c(Cl)c2)cc1 | 158 | 76 | 1380 |  |
| CCS(=O)(=O)c1ccc(CC(=O)Nc2ccc(-c3cccn3C)c(Cl)c2)cc1 | > 6310 |  |  |  |
| CCS(=O)(=O)c1ccc(CC(=O)Nc2ccc(-c3ccccc3CN(C)C)c(Cl)c2)cc1 | > 10000 |  |  |  |
